Results: US4695622A, “Hexapeptide” (Vsesojuzny Kardiologichesky Nauchny Tsentr Akademii …, priority 1984, dated 1987)
Residues, ends and D or L forms follow the SMILES beside them.

Experiments:
[1] = system: experimental hemorrhagic pancreonecrosis; assay: Enzymatic activity in blood serum in experimental hemorrhagic pancreonecrosis (acute pancreatitis model); assay type: in vivo, dogs
Method: (§1) The biological activity of the hexapeptide according to the present invention has been studied in experiments on dogs using an experimental acute pancreatitis model.
(§2) To this end, a similar operation was performed on 10 dogs. Under hexenal narcosis upper-median laparotomy was made. Into the wound a loop of duodenum was introduced with pancreas, cannulated and Wirsung's duct was dressed on a drain Snatorini's duct was additionally dressed too. Then the gall-bladder was punctured, bile was extracted therefrom and injected under pressure into Wirsung's duct at the rate of 0.5 ml per kg of the animal's bodyweight. As a stimulant of the pancreas secretion secretin and cholecystopancreoziimin were used which were intravenously administered at the rate of two units per kg of a dog's bodyweight. For administration of the stimulants of the pancreatic secretion, the hexapeptide according to the present invention and obtaining blood, the femoral vein was catheterized. For the measurement of diuresis and urine examination epicystostomy was effected or both ureters were catheterized. All the experiments were carried out on an empty stomach of the animals.
Prior to introduction of bile into Wirsung's duct, background samples of blood, urina and pancreatic juice were taken for special enzymological investigations. After administration of bile into Wirsung's duct the same biological tests were carried out every hour until the experiment was completed. The activity of the following pancreatic enzymes was studied: α-amylase, lipase, total esterase activity, antitryptic activity.
(§3) 30 minutes after the administration of bile into Wirsung's duct and then every 2 hours small pieces of pancreas tissue were taken from the animals from various sections for morphological investigations. In the second series of experiments 5 dogs were used. A hemorrhagic pancreonecrosis was induced in them and 2 hours after the development of acute pancreatitis an intravenous administration of the hexapeptide according to the present invention was started at the rate of 0.3 mg per kg of the animal's bodyweight. For enzymological and morphological studies the same biological samples and pieces of tissues of the pancreas were taken. The dogs were slaughtered 6-8 hours after the beginning of the experiment.
(§4) In the third series of experiments two dogs were used. The induced experimental pancreatitis was treated by means of the hexapeptide according to the present invention. The same tests were performed, but the dogs were not slaughtered. 24 hours from the beginning of the experiment and then 7 days and 15 days thereafter they were subjected to relaparotomy, the macroscopic view of pancreas was studied, pieces of the tissue of pancreas were taken for morphological studies.
(§5) The effect of the hexapeptide according to the present invention was compared with that of widely employed preparations--5-fluorouracyl an d tracilol--on the same model of acute pancreatitis.

[2] = system: experimental hemorrhagic pancreonecrosis; assay: Morphological studies of the pancreas in experimental hemorrhagic pancreonecrosis; assay type: in vivo, dogs; conditions: for Morphology of pancreas, early stages of treatment: tracilol 10,000 units per hour, hexapeptide 0.3 mg/kg
Method: as §1, §2
Three dogs were used in the control group of the experiments. They were treated to induce an experimental pancreatitis only without administration of the hexapeptide according to the present invention; an acute experiment lasted for 6-8 hours, whereafter the dogs were slaughtered by intracardiac administration of hexenal.
as §3, §4, §5

[3] = Acute toxicity (LD50); conditions: for LD50: acute toxicity, dose causing death of 50% of the animals; for LD50 surpasses the therapeutic dose by: therapeutic dose: 5-fluorouracyl 5 mg/kg, hexapeptide 0.3 mg/kg
[4] = Effect on cell formula of the blood and immune system; conditions: in vivo
[5] = Solubility of the powder; assay type: physicochemical
Method: The hexapeptide according to the present invention comprises a white powder, well soluble in distilled water, a physiological solution, ethanol; insoluble in ether, ethylacetate, benzene. The melting temperature is 173°-176° C. [α]D^22 =-19.1 (c 0.33 H2 O).

[6] = dogs, developed pancreonecrosis, hexapeptide 0.3 mg/kg

With `O=c1[nH]cc(F)c(=O)[nH]1` [5-fluorouracyl, reference compound] the “Total esterase activity in blood serum” value ([1]; dogs (3), 5-fluorouracyl 5 mg/kg i.v., after 4 hours, value for developed pancreonecrosis 0.58 ± 0.07) was 0.56 ± 0.02 μM/ml, the “Activity of lipase in blood serum” value ([1]; dogs (3), 5-fluorouracyl 5 mg/kg i.v., after 4 hours, value for developed pancreonecrosis 0.62 ± 0.12) was 0.48 ± 0.02 units and the “Antitryptic activity in blood serum” value ([1]; dogs (3), 5-fluorouracyl 5 mg/kg i.v., after 4 hours, value for developed pancreonecrosis 22.2 ± 1.4) was 20.1 ± 1.2 IU. The “Activity of alpha-amylase in blood serum” value ([1]; dogs (3), 5-fluorouracyl 5 mg/kg i.v., after 4 hours, value for developed pancreonecrosis 158.0 ± 18.2) was 152.2 ± 24.1 mg/h · ml, the “Total esterase activity in blood serum” value ([1]; dogs (3), 5-fluorouracyl 5 mg/kg i.v., after 6 hours, value for developed pancreonecrosis 0.58 ± 0.07) was 0.58 ± 0.04 μM/ml and the “Activity of lipase in blood serum” value ([1]; dogs (3), 5-fluorouracyl 5 mg/kg i.v., after 6 hours, value for developed pancreonecrosis 0.62 ± 0.12) was 0.54 ± 0.08 units. The “Antitryptic activity in blood serum” value ([1]; dogs (3), 5-fluorouracyl 5 mg/kg i.v., after 6 hours, value for developed pancreonecrosis 22.2 ± 1.4) was 20.1 ± 1.2 IU, the “Activity of alpha-amylase in blood serum” value ([1]; dogs (3), 5-fluorouracyl 5 mg/kg i.v., after 6 hours, value for developed pancreonecrosis 158.0 ± 18.2) was 153.3 ± 17.1 mg/h · ml and the “Characteristics of activity of enzymes in blood serum (lipase, esterase, antitryptic), in words” value ([1]; dogs, developed pancreonecrosis, 5-fluorouracyl 5 mg/kg, tracilol 10,000 units/hour) was “remain substanctially unchanged”. For the same molecule, the “Morphology of pancreas 7 days after the beginning of the treatment” value ([2]; dogs, 5-fluorouracyl 5 mg/kg) was “pronounced fibrosis of the pancreas with breaking of lobules into fragments”, the “Regeneration of the pancreas” value ([2]; dogs, 5-fluorouracyl 5 mg/kg, later stages of treatment) was “incomplete” and the “Morphology of pancreas, early stages of treatment” value ([2]; dogs, 5-fluorouracyl 5 mg/kg) was “noticeable inflammatory infiltration of necrotic zones and of the interstice is retained”. The LD50 [3] was 750 mg/kg and the “LD50 surpasses the therapeutic dose by” value [3] was 150 times.

With `CC(C)C[C@H](NC(=O)[C@H](Cc1ccccc1)NC(=O)CNC(=O)[C@H](C)NC(=O)[C@@H](N)Cc1ccc(O)cc1)C(=O)N[C@@H](CCCNC(=N)N)C(=O)O` [Tyrosyl-alanyl-glycyl-phenylalanyl-leucyl-arginine] (H-YAGFLR-OH) the “Cell formula of the blood” value [4] was “does not change the cell formula of the blood”, the “Pathological responses on the part of the immune system” value [4] was “does not cause pathological responses” and the Processes of homeopoiesis [4] was “does not inhibit the processes of homeopoiesis”. For the same molecule, the “Total esterase activity in blood serum” value ([1]; dogs (7), hexapeptide 0.3 mg/kg i.v., after 4 hours, value for developed pancreonecrosis 0.76 ± 0.05) was 0.16 ± 0.08 μM/ml, the “Activity of lipase in blood serum” value ([1]; dogs (7), hexapeptide 0.3 mg/kg i.v., after 4 hours, value for developed pancreonecrosis 1.15 ± 0.03) was 0.25 ± 0.02 units and the “Antitryptic activity in blood serum” value ([1]; dogs (7), hexapeptide 0.3 mg/kg i.v., after 4 hours, value for developed pancreonecrosis 26.5 ± 1.3) was 78.0 ± 13.1 IU. The “Activity of alpha-amylase in blood serum” value ([1]; dogs (7), hexapeptide 0.3 mg/kg i.v., after 4 hours, value for developed pancreonecrosis 178 ± 28.2) was 246.2 ± 26.7 mg/n · ml, the “Total esterase activity in blood serum” value ([1]; dogs (7), hexapeptide 0.3 mg/kg i.v., after 6 hours, value for developed pancreonecrosis 0.76 ± 0.05) was 0.20 ± 0.09 μM/ml and the “Activity of lipase in blood serum” value ([1]; dogs (7), hexapeptide 0.3 mg/kg i.v., after 6 hours, value for developed pancreonecrosis 1.15 ± 0.03) was 0.40 ± 0.05 units. The “Antitryptic activity in blood serum” value ([1]; dogs (7), hexapeptide 0.3 mg/kg i.v., after 6 hours, value for developed pancreonecrosis 26.5 ± 1.3) was 72.0 ± 2.5 IU, the “Activity of alpha-amylase in blood serum” value ([1]; dogs (7), hexapeptide 0.3 mg/kg i.v., after 6 hours, value for developed pancreonecrosis 178 ± 28.2) was 258.2 ± 33.2 mg/n · ml and the “Activity of lipase in blood serum (in words)” value [1, 6] was “sharply reduced”. The “Increase of the antitryptic activity (in words)” value [1, 6] was “three-time increase”, the “Total esterase activity of blood (in words)” value [1, 6] was “lowered” and the “Synthesis of pancreatic enzymes in acute pancreatitis” value ([1]; dogs, hexapeptide) was “effectively inhibits”. For the same molecule, the Solubility ([5]; benzene) was “insoluble”, the Solubility ([5]; distilled water) was “well soluble” and the Solubility ([5]; ethanol) was “well soluble”. For the same molecule, the Solubility ([5]; ether) was “insoluble”, the Solubility ([5]; ethylacetate) was “insoluble” and the Solubility ([5]; physiological solution) was “well soluble”. The “Morphology of hemorrhagic pancreonecrosis one day after the treatment” value ([2]; dogs, hexapeptide i.v.) was “positive dynamics”, the “Regeneration of the acinar tissue” value ([2]; dogs, hexapeptide, 14 days after the beginning of the treatment) was “complete regeneration of the acinar tissue” and the “Morphology of pancreas, early stages of treatment” value ([2]; dogs, 5-fluorouracyl 5 mg/kg) was “absence of signs of hemorrhagic zones of necrosis and hemorrhages into the interstice”. The Antipancreonecrotic activity ([2]; overall conclusion) was “exhibits an antipancreonecrotic activity”, the LD50 [3] was 150 mg/kg and the “LD50 surpasses the therapeutic dose by” value [3] was 500 times.
